Assay results as given in PubChem BioAssay (NCI).
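Results reflect a 48-hour exposure of cells in 96-well plates to compound at five concentrations. GI50 marks 50% less growth. TGI: total growth inhibition.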

Key:
Assay in all cases: inhibition of tumour cell growth, NCI panel, 48 h
SK-MEL-5 melanoma = system: SK-MEL-5 melanoma
SF-539 CNS = system: SF-539 CNS
OVCAR-4 ovarian = system: OVCAR-4 ovarian
HCC-2998 colon = system: HCC-2998 colon
SF-295 CNS = system: SF-295 CNS
A549 NSCLC = system: A549 NSCLC
COLO 205 colon = system: COLO 205 colon
HS 578T breast = system: HS 578T breast
RPMI-8226 leukemia = system: RPMI-8226 leukemia
DU-145 prostate = system: DU-145 prostate
HCT-15 colon = system: HCT-15 colon
OVCAR-3 ovarian = system: OVCAR-3 ovarian
SR leukemia = system: SR leukemia
HOP-92 NSCLC = system: HOP-92 NSCLC
ACHN renal = system: ACHN renal
MDA-MB-435 = system: MDA-MB-435
SK-MEL-28 melanoma = system: SK-MEL-28 melanoma
UACC-257 melanoma = system: UACC-257 melanoma
UO-31 renal = system: UO-31 renal
IGROV1 ovarian = system: IGROV1 ovarian
SW-620 colon = system: SW-620 colon
UACC-62 melanoma = system: UACC-62 melanoma
CAKI-1 renal = system: CAKI-1 renal
PC-3 prostate = system: PC-3 prostate
A498 renal = system: A498 renal
NCI-H522 lung = system: NCI-H522 lung
SF-268 CNS = system: SF-268 CNS
BT-549 breast = system: BT-549 breast
HL-60(TB) leukemia = system: HL-60(TB) leukemia
U251 CNS = system: U251 CNS
MOLT-4 leukemia = system: MOLT-4 leukemia
MDA-MB-231 breast = system: MDA-MB-231 breast
NCI-H23 lung = system: NCI-H23 lung
786-0 renal = system: 786-0 renal
NCI-H226 lung = system: NCI-H226 lung
M14 melanoma = system: M14 melanoma
KM12 colon = system: KM12 colon
SNB-75 CNS = system: SNB-75 CNS
HT29 colon = system: HT29 colon
T-47D breast = system: T-47D breast
OVCAR-8 ovarian = system: OVCAR-8 ovarian
TK-10 renal = system: TK-10 renal
SNB-19 CNS = system: SNB-19 CNS
OVCAR-5 ovarian = system: OVCAR-5 ovarian
K-562 leukemia = system: K-562 leukemia
RXF 393 renal = system: RXF 393 renal
CCRF-CEM leukemia = system: CCRF-CEM leukemia
NCI/ADR-RES ovarian = system: NCI/ADR-RES ovarian
HOP-62 NSCLC = system: HOP-62 NSCLC
NCI-H460 lung = system: NCI-H460 lung
EKVX NSCLC = system: EKVX NSCLC
HCT-116 colon = system: HCT-116 colon
MALME-3M melanoma = system: MALME-3M melanoma
MCF7 breast = system: MCF7 breast

CCCCCCCC(=O)OCCCC1[C@]2(C)CC[C@@]3(C)C([C@H](C)CCC=C(C)C)CC[C@]3(C)C2CC[C@]12OC2(C)C (stereo partly drawn)
GI50 (SK-MEL-5 melanoma): 33.9 µM
TGI (SK-MEL-5 melanoma): > 100 µM
GI50 (SF-539 CNS): 26.5 µM
TGI (SF-539 CNS): 59.5 µM
GI50 (OVCAR-4 ovarian): 78.9 µM
TGI (OVCAR-4 ovarian): > 100 µM
GI50 (HCC-2998 colon): 18.6 µM
TGI (HCC-2998 colon): 47.5 µM
GI50 (SF-295 CNS): 31.2 µM
TGI (SF-295 CNS): > 100 µM
GI50 (A549 NSCLC): 32.4 µM
TGI (A549 NSCLC): > 100 µM
GI50 (COLO 205 colon): 39.7 µM
TGI (COLO 205 colon): > 100 µM
GI50 (HS 578T breast): 40.3 µM
TGI (HS 578T breast): > 100 µM
GI50 (RPMI-8226 leukemia): 36.4 µM
TGI (RPMI-8226 leukemia): > 100 µM
GI50 (DU-145 prostate): 38.1 µM
TGI (DU-145 prostate): > 100 µM
GI50 (HCT-15 colon): 29.4 µM
TGI (HCT-15 colon): > 100 µM
GI50 (OVCAR-3 ovarian): 24.9 µM
TGI (OVCAR-3 ovarian): 65.2 µM
GI50 (SR leukemia): 22.6 µM
TGI (SR leukemia): 45.7 µM
GI50 (HOP-92 NSCLC): 28.2 µM
TGI (HOP-92 NSCLC): > 100 µM
GI50 (ACHN renal): 22.9 µM
TGI (ACHN renal): 45.4 µM
GI50 (MDA-MB-435): 36.6 µM
TGI (MDA-MB-435): > 100 µM
GI50 (SK-MEL-28 melanoma): 42.4 µM
TGI (SK-MEL-28 melanoma): > 100 µM
GI50 (UACC-257 melanoma): 68.2 µM
TGI (UACC-257 melanoma): > 100 µM
GI50 (UO-31 renal): 31.9 µM
TGI (UO-31 renal): > 100 µM
GI50 (IGROV1 ovarian): 34.8 µM
TGI (IGROV1 ovarian): > 100 µM
GI50 (SW-620 colon): 40.4 µM
TGI (SW-620 colon): > 100 µM
GI50 (UACC-62 melanoma): 17.6 µM
TGI (UACC-62 melanoma): 78 µM
GI50 (CAKI-1 renal): 23.8 µM
TGI (CAKI-1 renal): 48.9 µM
GI50 (PC-3 prostate): 30.2 µM
TGI (PC-3 prostate): > 100 µM
GI50 (A498 renal): > 100 µM
TGI (A498 renal): > 100 µM
GI50 (NCI-H522 lung): 35.1 µM
TGI (NCI-H522 lung): > 100 µM
GI50 (SF-268 CNS): 27.2 µM
TGI (SF-268 CNS): 81.8 µM
GI50 (BT-549 breast): 88.6 µM
TGI (BT-549 breast): > 100 µM
GI50 (HL-60(TB) leukemia): 28.5 µM
TGI (HL-60(TB) leukemia): 67.4 µM
GI50 (U251 CNS): 27.7 µM
TGI (U251 CNS): 93.3 µM
GI50 (MOLT-4 leukemia): 22.1 µM
TGI (MOLT-4 leukemia): 57.1 µM
GI50 (MDA-MB-231 breast): 10.8 µM
TGI (MDA-MB-231 breast): 34.6 µM
GI50 (NCI-H23 lung): 23.1 µM
TGI (NCI-H23 lung): 61.7 µM
GI50 (786-0 renal): > 100 µM
TGI (786-0 renal): > 100 µM
GI50 (NCI-H226 lung): 22.8 µM
TGI (NCI-H226 lung): 92.3 µM
GI50 (M14 melanoma): > 100 µM
TGI (M14 melanoma): > 100 µM
GI50 (KM12 colon): 29.6 µM
TGI (KM12 colon): 84.1 µM
GI50 (SNB-75 CNS): > 100 µM
TGI (SNB-75 CNS): > 100 µM
GI50 (HT29 colon): 42.3 µM
TGI (HT29 colon): > 100 µM
GI50 (T-47D breast): 35.7 µM
TGI (T-47D breast): > 100 µM
GI50 (OVCAR-8 ovarian): 64 µM
TGI (OVCAR-8 ovarian): > 100 µM
GI50 (TK-10 renal): 30.6 µM
TGI (TK-10 renal): > 100 µM
GI50 (SNB-19 CNS): 34.5 µM
TGI (SNB-19 CNS): 97.6 µM
GI50 (OVCAR-5 ovarian): > 100 µM
TGI (OVCAR-5 ovarian): > 100 µM
GI50 (K-562 leukemia): 44.1 µM
TGI (K-562 leukemia): > 100 µM
GI50 (RXF 393 renal): 21.3 µM
TGI (RXF 393 renal): 49.3 µM
GI50 (CCRF-CEM leukemia): 28.4 µM
TGI (CCRF-CEM leukemia): 69.1 µM
GI50 (NCI/ADR-RES ovarian): 35 µM
TGI (NCI/ADR-RES ovarian): > 100 µM
GI50 (HOP-62 NSCLC): > 100 µM
TGI (HOP-62 NSCLC): > 100 µM
GI50 (NCI-H460 lung): 26.2 µM
TGI (NCI-H460 lung): 71 µM
GI50 (EKVX NSCLC): 49.7 µM
TGI (EKVX NSCLC): > 100 µM
GI50 (HCT-116 colon): 52.2 µM
TGI (HCT-116 colon): > 100 µM
GI50 (MALME-3M melanoma): > 100 µM
TGI (MALME-3M melanoma): > 100 µM
GI50 (MCF7 breast): 34.1 µM
TGI (MCF7 breast): > 100 µM
